Results: ChEMBL document CHEMBL4630908 (2021)
Calls of active or inactive are those of the source. No cut-off for these calls is given here.

Assays:
[1] = target: Histone acetyltransferase KAT2A (Homo sapiens, UniProt Q92830); assay: GCN5L2 DiscoverX BROMOscan
[2] = target: Histamine H4 receptor (Homo sapiens) (UniProt Q9H3N8); conditions: Compound concentration 10.0 uM
[3] = target: Sodium-dependent noradrenaline transporter (Homo sapiens) (UniProt P23975); conditions: Compound concentration 10.0 uM
[4] = target: D(4) dopamine receptor (Homo sapiens) (UniProt P21917); conditions: Compound concentration 10.0 uM
[5] = target: ATPase family AAA domain-containing protein 2B (Homo sapiens, UniProt Q9ULI0); assay: ATAD2B DiscoverX BROMOscan
[6] = target: D(1B) dopamine receptor (Homo sapiens) (UniProt P21918); conditions: Compound concentration 10.0 uM
[7] = target: Alpha-2C adrenergic receptor (Homo sapiens) (UniProt P18825); conditions: Compound concentration 10.0 uM
[8] = target: T1, 5-hydroxytryptamine receptor 1D (Homo sapiens, UniProt P28221); assay: GPCRScan assay: inhibition of 5-HT1D; parameters: radioligand conc. used [nm] 1.0 – 2.0, parental cells HEKT
[9] = target: T2, Bromodomain testis-specific protein (Homo sapiens, UniProt Q58F21); assay: BRDT BD2 Bromoscan (DiscoverX)
[10] = target: 5-hydroxytryptamine receptor 5A (Homo sapiens) (UniProt P47898); conditions: Compound concentration 10.0 uM
[11] = target: Nucleosome-remodeling factor subunit BPTF (Homo sapiens, UniProt Q12830); assay: FALZ DiscoverX BROMOscan
[12] = target: 5-hydroxytryptamine receptor 2C (Homo sapiens) (UniProt P28335); conditions: Compound concentration 10.0 uM
[13] = target: T2, Bromodomain testis-specific protein; assay: BRDT(1,2) DiscoverX BROMOscan
[14] = target: T1, 5-hydroxytryptamine receptor 1D; conditions: Compound concentration 10.0 uM
[15] = target: T2, Bromodomain testis-specific protein; assay: BRDT(1) DiscoverX BROMOscan
Peregrin = Peregrin (Homo sapiens, UniProt P55201); assay: BRPF1 DiscoverX BROMOscan
[16] = target: T3, Bromodomain-containing protein 3 (Homo sapiens, UniProt Q15059); assay: BRD3 BD1 Bromoscan (DiscoverX)
[17] = target: Histamine H2 receptor (Homo sapiens) (UniProt P25021); conditions: Compound concentration 10.0 uM
[18] = target: Beta-3 adrenergic receptor (Homo sapiens) (UniProt P13945); conditions: Compound concentration 10.0 uM
[19] = target: Bromodomain-containing protein 8 (Homo sapiens, UniProt Q9H0E9); assay: BRD8(2) DiscoverX BROMOscan
[20] = target: T3, Bromodomain-containing protein 3; assay: BRD3(2) DiscoverX BROMOscan
[21] = target: 5-hydroxytryptamine receptor 6 (Homo sapiens) (UniProt P50406); conditions: Compound concentration 10.0 uM
Rattus norvegicus = species on record: Rattus norvegicus; conditions: Compound concentration 10.0 uM
[22] = target: Bromodomain-containing protein 2 (Homo sapiens, UniProt P25440); assay: TR-FRET assay (BRD2 BD2)

T3 sequence (Q15059 whole entry): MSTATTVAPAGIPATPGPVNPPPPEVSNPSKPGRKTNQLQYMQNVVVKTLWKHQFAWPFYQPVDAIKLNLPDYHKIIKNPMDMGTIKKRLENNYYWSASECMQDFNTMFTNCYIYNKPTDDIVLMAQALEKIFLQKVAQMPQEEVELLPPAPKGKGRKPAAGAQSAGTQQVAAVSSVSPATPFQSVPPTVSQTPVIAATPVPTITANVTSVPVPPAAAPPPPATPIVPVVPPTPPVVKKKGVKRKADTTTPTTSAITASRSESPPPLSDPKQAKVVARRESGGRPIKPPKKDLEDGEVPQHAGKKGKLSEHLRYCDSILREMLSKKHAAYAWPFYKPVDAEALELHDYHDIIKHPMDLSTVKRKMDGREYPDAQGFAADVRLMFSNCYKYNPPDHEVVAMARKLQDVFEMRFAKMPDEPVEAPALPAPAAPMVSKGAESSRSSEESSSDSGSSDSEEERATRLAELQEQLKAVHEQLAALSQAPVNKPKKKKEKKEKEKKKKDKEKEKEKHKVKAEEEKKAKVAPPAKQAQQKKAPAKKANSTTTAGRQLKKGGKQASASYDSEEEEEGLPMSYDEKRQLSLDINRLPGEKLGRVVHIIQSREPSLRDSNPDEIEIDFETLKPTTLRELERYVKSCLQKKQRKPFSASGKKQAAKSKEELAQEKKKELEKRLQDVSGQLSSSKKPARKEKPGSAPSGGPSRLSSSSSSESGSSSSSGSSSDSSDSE
T1 sequence (P28221 whole entry): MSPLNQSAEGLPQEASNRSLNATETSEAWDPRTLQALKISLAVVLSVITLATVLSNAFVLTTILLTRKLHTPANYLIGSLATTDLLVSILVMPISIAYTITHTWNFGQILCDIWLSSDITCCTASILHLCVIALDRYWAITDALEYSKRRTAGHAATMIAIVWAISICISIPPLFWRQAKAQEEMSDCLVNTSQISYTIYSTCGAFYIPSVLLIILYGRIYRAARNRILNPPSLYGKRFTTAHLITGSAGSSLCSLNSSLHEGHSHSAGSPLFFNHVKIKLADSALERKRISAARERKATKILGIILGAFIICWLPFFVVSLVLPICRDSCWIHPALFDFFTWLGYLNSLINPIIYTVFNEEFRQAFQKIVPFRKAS
Chain of Beta-3 adrenergic receptor (Homo sapiens) (P13945 whole entry, looked up): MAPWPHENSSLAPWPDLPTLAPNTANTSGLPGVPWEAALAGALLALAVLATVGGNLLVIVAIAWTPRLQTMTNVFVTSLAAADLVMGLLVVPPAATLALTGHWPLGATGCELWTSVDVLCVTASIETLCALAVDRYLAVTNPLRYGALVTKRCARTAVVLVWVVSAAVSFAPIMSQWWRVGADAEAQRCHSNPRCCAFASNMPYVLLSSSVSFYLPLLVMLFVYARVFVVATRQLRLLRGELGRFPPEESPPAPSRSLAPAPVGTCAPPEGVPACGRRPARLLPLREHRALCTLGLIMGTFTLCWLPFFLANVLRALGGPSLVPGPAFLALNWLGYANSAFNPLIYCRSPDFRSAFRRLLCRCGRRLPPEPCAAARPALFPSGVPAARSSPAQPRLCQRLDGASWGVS
Chain of Alpha-2C adrenergic receptor (Homo sapiens) (P18825 whole entry): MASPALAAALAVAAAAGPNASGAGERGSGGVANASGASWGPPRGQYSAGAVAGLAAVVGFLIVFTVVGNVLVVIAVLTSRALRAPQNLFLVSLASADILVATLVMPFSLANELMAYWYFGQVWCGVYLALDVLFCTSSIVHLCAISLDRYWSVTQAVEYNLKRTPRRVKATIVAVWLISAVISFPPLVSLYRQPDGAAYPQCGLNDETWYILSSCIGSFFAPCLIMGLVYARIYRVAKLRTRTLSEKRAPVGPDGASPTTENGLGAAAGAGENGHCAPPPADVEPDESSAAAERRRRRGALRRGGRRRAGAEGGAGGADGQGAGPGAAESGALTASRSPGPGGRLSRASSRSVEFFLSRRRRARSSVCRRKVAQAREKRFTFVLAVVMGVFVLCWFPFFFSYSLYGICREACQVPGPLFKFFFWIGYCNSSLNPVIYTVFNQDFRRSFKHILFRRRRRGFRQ
Chain of Histamine H4 receptor (Homo sapiens) (Q9H3N8 whole entry): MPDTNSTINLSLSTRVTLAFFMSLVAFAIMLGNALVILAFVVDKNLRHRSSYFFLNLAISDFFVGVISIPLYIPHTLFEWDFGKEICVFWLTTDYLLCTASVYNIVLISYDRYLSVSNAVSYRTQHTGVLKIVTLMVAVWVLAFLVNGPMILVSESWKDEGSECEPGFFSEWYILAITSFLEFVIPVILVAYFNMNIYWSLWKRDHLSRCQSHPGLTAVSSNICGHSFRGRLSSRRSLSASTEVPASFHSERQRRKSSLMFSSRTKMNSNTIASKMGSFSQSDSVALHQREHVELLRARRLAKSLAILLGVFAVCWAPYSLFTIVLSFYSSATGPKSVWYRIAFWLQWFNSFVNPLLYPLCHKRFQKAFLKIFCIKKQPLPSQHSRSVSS
Chain of D(1B) dopamine receptor (Homo sapiens) (P21918 whole entry): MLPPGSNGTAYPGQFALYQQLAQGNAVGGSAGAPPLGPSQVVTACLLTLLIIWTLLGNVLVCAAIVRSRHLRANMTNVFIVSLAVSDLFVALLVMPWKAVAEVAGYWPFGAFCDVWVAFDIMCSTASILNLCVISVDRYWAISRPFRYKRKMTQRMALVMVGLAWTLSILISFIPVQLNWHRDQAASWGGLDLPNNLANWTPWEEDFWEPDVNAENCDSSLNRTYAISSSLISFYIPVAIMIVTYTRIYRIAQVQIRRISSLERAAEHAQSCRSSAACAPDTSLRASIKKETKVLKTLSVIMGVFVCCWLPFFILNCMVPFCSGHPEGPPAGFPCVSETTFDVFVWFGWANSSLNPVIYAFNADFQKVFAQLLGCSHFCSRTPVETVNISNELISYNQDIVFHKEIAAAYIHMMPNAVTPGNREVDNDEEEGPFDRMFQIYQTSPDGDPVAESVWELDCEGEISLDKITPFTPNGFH
Chain of Peregrin (P55201 whole entry): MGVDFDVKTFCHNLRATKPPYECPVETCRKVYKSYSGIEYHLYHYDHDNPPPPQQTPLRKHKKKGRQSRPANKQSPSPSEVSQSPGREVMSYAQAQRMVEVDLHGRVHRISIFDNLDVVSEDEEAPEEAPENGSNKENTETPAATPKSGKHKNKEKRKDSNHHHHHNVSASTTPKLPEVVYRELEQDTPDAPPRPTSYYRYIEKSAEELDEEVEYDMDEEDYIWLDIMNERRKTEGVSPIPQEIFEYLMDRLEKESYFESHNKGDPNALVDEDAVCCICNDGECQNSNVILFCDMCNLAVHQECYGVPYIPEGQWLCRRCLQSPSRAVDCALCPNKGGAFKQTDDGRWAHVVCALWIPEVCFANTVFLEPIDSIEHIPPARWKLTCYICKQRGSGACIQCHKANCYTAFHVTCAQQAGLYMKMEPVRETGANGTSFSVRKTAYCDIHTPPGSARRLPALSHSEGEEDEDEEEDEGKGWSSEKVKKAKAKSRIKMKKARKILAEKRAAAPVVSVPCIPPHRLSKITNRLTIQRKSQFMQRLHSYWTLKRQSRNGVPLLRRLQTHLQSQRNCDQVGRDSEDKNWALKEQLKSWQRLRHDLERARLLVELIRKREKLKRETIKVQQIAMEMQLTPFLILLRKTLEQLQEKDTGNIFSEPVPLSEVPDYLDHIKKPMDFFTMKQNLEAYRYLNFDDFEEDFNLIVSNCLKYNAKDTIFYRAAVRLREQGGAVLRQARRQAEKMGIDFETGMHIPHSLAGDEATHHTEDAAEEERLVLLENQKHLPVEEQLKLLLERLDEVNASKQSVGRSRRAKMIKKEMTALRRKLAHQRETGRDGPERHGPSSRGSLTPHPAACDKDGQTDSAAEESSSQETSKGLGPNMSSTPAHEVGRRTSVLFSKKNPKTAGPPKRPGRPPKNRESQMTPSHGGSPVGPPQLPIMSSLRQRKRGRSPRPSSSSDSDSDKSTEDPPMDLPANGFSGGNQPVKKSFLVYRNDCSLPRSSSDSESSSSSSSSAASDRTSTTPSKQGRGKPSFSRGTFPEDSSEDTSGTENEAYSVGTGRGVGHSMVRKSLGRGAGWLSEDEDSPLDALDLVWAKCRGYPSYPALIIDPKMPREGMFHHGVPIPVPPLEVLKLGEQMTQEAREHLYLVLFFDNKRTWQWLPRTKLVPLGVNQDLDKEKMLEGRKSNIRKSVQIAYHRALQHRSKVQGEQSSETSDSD
Chain of Histone acetyltransferase KAT2A (Q92830 whole entry): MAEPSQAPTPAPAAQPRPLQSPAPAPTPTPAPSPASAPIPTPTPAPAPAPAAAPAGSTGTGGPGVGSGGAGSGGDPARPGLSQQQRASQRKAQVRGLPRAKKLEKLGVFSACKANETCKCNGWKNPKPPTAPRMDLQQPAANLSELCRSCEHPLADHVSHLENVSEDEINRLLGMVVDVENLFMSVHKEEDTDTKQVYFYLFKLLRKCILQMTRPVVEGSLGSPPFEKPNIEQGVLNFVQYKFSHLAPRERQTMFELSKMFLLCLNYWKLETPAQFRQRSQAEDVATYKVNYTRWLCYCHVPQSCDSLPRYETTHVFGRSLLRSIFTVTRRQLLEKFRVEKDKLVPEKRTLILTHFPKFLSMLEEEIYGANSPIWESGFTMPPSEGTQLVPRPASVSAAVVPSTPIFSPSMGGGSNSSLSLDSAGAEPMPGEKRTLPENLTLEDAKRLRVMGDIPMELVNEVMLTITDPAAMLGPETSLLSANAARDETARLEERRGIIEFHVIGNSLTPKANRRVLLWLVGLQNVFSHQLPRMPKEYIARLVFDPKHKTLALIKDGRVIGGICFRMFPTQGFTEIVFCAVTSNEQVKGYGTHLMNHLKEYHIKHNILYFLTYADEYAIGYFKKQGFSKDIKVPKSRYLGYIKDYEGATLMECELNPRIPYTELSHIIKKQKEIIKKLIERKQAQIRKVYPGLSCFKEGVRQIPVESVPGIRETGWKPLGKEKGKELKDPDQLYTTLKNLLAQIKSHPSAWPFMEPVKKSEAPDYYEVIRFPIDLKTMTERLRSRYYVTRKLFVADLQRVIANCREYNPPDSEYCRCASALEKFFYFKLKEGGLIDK

CC(=O)Nc1c(F)cc(C(=O)N[C@H]2CC[C@H](O)CC2)cc1O[C@@H](C)c1ccccc1 [GSK046]
Kd [1]: 30 µM | inhibition [2]: 20.1% | inhibition [3]: -0.92% | inhibition [4]: 36% | Kd [5]: 30 µM | inhibition [6]: 21.4% | inhibition [7]: -0.86% | Ki [8]: 3.44 µM | Kd [9]: 15 nM (active) | inhibition [10]: -8.96% | Kd [11]: 30 µM | inhibition [12]: 14% | Kd [13]: 36 nM | inhibition [14]: 84.2% | Kd [15]: 2450 nM | Kd (Peregrin): 30 µM | Kd [16]: 2.08 µM (not active) | inhibition [17]: -7.57% | inhibition [18]: 17.5% | Kd [19]: 30 µM | Kd [20]: 33 nM | inhibition [21]: 11.4% | inhibition (Rattus norvegicus): 5.68% | IC50 [22]: 264 nM (active)
